Results reported in US20100069854A1, “Elastomeric Devices Containing Chlorhexidine/Fatty Acid Salts Made From Fatty Acids of 12 to 18 Carbons” (priority 2008, published 2010).
Entries after “also recorded” stand apart in the source; their conditions may differ.

Key:
[1] = Rate of release of chlorhexidine/fatty acid salts from coated polyurethane tubes into DI water; format: physicochemical; details: for Cumulative release of the chlorhexidine/fatty acid salts from the coated polyurethane tubes: 1 cm coated tube in DI water, 37° C.
Description: A solution of each respective chlorhexidine/fatty acid salt was prepared and used to infuse a sample of elastomeric material. To perform the test, individual samples, 8 cm pieces of polyurethane tube containing a colorant, were surface dip coated in respective solutions of the chlorhexidine/fatty acid salts. The solutions were prepared as follows: 8.6 g of Tecoflex (Noveon, Cleveland, Ohio) was dissolved in 174 g of Tetrahydrofuran and methanol. 5.88 g of chlorhexidine acetate, chlorhexidine laurate, chlorhexidine myristate, chlorhexidine palmitate and chlorhexidine stearate were individually dissolved into the polymer-solvent mixture. The samples were immersed into the solvent-polymer-salt mixture and then dried at room temperature, evaporating the solvent. A polymeric coating was produced on the surface of the tubes. The amounts of chlorhexidine/fatty acid salt adhered per cm of the tube was measured (Table 2) by exhaustively extracting the salt and measuring UV absorbance at 253 nm relative to controls: For each of the samples, the rate of release of chlorhexidine/fatty acid salts into an aqueous solution was determined. To perform the rate of release test, 1 cm from each of the coated polyurethane tubes, were submerged in DeIonized (DI) water and incubated at 37° C. for a period of 28 days to determine the rate of release of the salts from the respective 1 cm samples of coated polyurethane tubing. The water was collected and replaced with fresh water after approximately 2 hours. The water was again collected and replaced with fresh water after the first day and every seven days thereafter. The amount of chlorhexidine/fatty acid salt in the collected water was measured with an Agilent 8453 UV-Vis Diode Array Detector with a manual setup using a cuvette w/path length of 1 cm. Chlorhexidine absorbance was read at 253 nm and concentration was calculated via a calibration curve developed using standards of 1, 5, 10, 20, 30, 35, and 40 μg/mL chlorhexidine acetate in DI Water. The percentage of chlorhexidine/fatty acid salt released from the sample into an aqueous media (percent release) was calculated according to the following equation: Percent release=(cumulative release at that time period/initial content)*100.

[2] = test system: Candida albicans ATCC 10231; experiment: Zone of inhibition assay with impregnated polyurethane foam discs; format: cell-based; details: for Zone of inhibition compared with the other salts (in words): impregnated polyurethane foam, after several daily transfers / over the 9 day assay
Description: To evaluate antimicrobial properties of polyurethane foam samples infused with the various chlorhexidine/fatty acid salts, a zone of inhibition assay was performed. In this assay, 1.4% (w/v) of chlorhexidine acetate, chlorhexidine caprate, chlorhexidine laurate, chlorhexidine myristate, chlorhexidine palmitate and chlorhexidine stearate solutions in methanol were prepared. A supply of 8 mm discs were punched out of a sheet of polyurethane foam (Rynel medical grade polyurethane foam) with biopsy punches (Miltex Kai). Several discs were placed in each of six 50 ml centrifuge tubes. Approximately 5 ml of each of the different methanol/chlorhexidine/fatty acid salt solutions was added to each respective tube. The discs were centrifuged for 5 minutes to remove any air bubbles and soaked for 1 hr to infuse the foam discs with the respective chlorhexidine/fatty acid salt. Infused discs were transferred to clean centrifuge tubes and vacuum dried at 25° C. for 24 hrs to remove any residual solvents. Initial concentrations of salts, impregnated into the punches, were determined by dissolving the impregnated foams and by high pressure liquid chromatography (HPLC) analysis using an Agilent Eclipse XDB-CN 3u 4.6×150 mm column with initial mobile phase=65% DI water/0.2% trifluoroacetic acid (TFA): 35% Acetonitrile/0.2% TFA. Chlorhexidine absorbance was read at 253 nm and concentration was calculated via a chlorhexidine calibration curve. […] To perform the zone of inhibition assay on the impregnated polyurethane foam discs, agar plates were prepared by mixing 11 g Mueller-Hinton cation-adjusted broth and 1.5 g agarose in 500 ml DI water. The agar was autoclaved for 15 minutes at 121° C., 15 psi. 10 ml of the still hot, liquid agar was pipetted onto petri dishes. The challenge organism, Candida albicans ATCC 10231, was cultivated in Trypticase soy broth, standard microbiological growth medium (TSB). Sterile cotton swabs were dipped into the undiluted culture and the plated agar was fully inoculated with swabs. The 8 mm polyurethane foam discs were transferred daily to a freshly inoculated agar for 9 days. The zone of inhibition (ZOI) was measured using calipers. Actual ZOI was measured by subtracting the diameter of the foam (when wet) from the zone measured and dividing by 2. The results are presented in Table 6, with a graphical representation of the ZOI in FIG. 2;

[3] = test system: Pseudomonas aeruginosa ATCC 27853; experiment: Basic broth adherence assay on coated polyurethane tubes; format: cell-based
Description: The antimicrobial effectiveness of the coated samples was subjected to different durations of DI water extraction by basic broth adherence assay. For each chlorhexidine/fatty acid salt tested, 3 samples of coated tubing were prepared and assayed. To prepare the inoculum, a culture of Pseudomonas aeruginosa ATCC 27853 was used to challenge the coated polyurethane tubes and controls. The negative control used was a length of uncoated polyurethane tube. The challenge microorganism suspension was prepared as follows: approximately three colonies were removed from a secondary working culture plated on Trypticase Soy Agar (TSA) (BD-Falcon) with 5% sheep's blood and added to 10 ml of Trypticase Soy Broth (TSB). The vial was vortexed for approximately 30 seconds and incubated for 4 hours at 37° C. at 100 rpm. Following incubation, the vial was removed and vortexed. The optical density of the organism suspension was read. The inoculum was then diluted in TSB to a concentration of 5×10^4 colony forming units per milliliter (CFU/mL). This concentration was confirmed by the Miles and Misra drop count method.
The basic broth adherence assay was performed in a 96 well micro titer plate. To each well of the micro titer plate containing either a test article or a control, 900 μl of TSB was added. To this, 100 μl of the adjusted inoculum was added (Note: Due to the 1/10 dilution per well, the starting inoculum concentration of each organism was […] for Pseudomonas aeruginosa). The micro titer plates were then sealed via parafilm® around the edges and wrapped in foil to avoid evaporation of liquid and light contact with the samples. The plates were then placed inside a shaker incubator set at 37° C. and 100 rpm for 24 hours. Incubation at 37° C. then continued until the elapse of 7 days, 14 days, and 21 days, respectively, for each of the 3 samples prepared for each chlorhexidine/fatty acid salt.
At the completion of the respective incubation periods, the samples were rinsed, sonicated, the sonicate was plated and adherence was evaluated. More particularly, following incubation, all samples and controls were dip-rinsed twice in phosphate buffered saline (PBS) to remove the surrounding media. After rinsing, test articles were sonicated in micro titer plate wells containing 1 mL of Dey-Engley (DE) neutralizing broth (Difco). The sonication liquid was then serially diluted, and plated onto the surface of DE neutralizing agar. Plates were incubated at 37° C. for 24 to 48 hours and colonies were counted. Recovery counts were recorded as CFU/mL.

[4] = Day 1, daily transfer to fresh agar
[5] = Day 2, daily transfer to fresh agar
[6] = Day 3, daily transfer to fresh agar
[7] = Day 4, daily transfer to fresh agar
[8] = Day 7, daily transfer to fresh agar
[9] = Day 8, daily transfer to fresh agar
[10] = Day 9, daily transfer to fresh agar

Structure (SMILES)	ZOI produced by impregnated polyurethane foam punches against Candida albicans [2, 4]	ZOI produced by impregnated polyurethane foam punches against Candida albicans [2, 5]	ZOI produced by impregnated polyurethane foam punches against Candida albicans [2, 6]	ZOI produced by impregnated polyurethane foam punches against Candida albicans [2, 7]	ZOI produced by impregnated polyurethane foam punches against Candida albicans [2, 8]	ZOI produced by impregnated polyurethane foam punches against Candida albicans [2, 9]	ZOI produced by impregnated polyurethane foam punches against Candida albicans [2, 10]	Zone of inhibition compared with the other salts (in words) [2]	Cumulative release of the chlorhexidine/fatty acid salts from the coated polyurethane tubes ([1]; Day 1)	Cumulative release of the chlorhexidine/fatty acid salts from the coated polyurethane tubes ([1]; Day 7)	Cumulative release of the chlorhexidine/fatty acid salts from the coated polyurethane tubes ([1]; Day 14)	Cumulative release of the chlorhexidine/fatty acid salts from the coated polyurethane tubes ([1]; Day 21)	Cumulative release of the chlorhexidine/fatty acid salts from the coated polyurethane tubes ([1]; Day 28)	Log10 reduction of adhered Pseudomonas aeruginosa onto the surface of coated polyurethane tubes ([3]; 7 days)	Log10 reduction of adhered Pseudomonas aeruginosa onto the surface of coated polyurethane tubes ([3]; 21 days)	other results
CCCCCCCCCC(=O)O.CCCCCCCCCC(=O)O.N=C(NCCCCCCNC(=N)NC(=N)Nc1ccc(Cl)cc1)NC(=N)Nc1ccc(Cl)cc1 [Chlorhexidine Caprate, chlorhexidine caprate]	14 mm	18 mm	18 mm	10 mm	7 mm	9 mm	7 mm	zones of inhibition that were smaller								Percent release of the initial salt concentration from the coated sample ([1]; after approximately 7 days (FIG. 1)): 70%
CCCCCCCCCCCCCC(=O)O.CCCCCCCCCCCCCC(=O)O.N=C(NCCCCCCNC(=N)NC(=N)Nc1ccc(Cl)cc1)NC(=N)Nc1ccc(Cl)cc1 [Chlorhexidine Myristate, chlorhexidine dimyristate]	27 mm	34 mm	32 mm	18 mm	16 mm	16 mm	18 mm		40 g	98 g	133 g	147 g	151 g	7	7	Release from the coated sample over the test (in words) ([1]; FIG. 1, 28 days in DI water): continually released at an appreciable rate throughout the duration of the test; Amount released from the coated sample over the 7 day period ([1]; from 21 to 28 days): 4 µg
CCCCCCCCCCCCCCCCCC(=O)O.CCCCCCCCCCCCCCCCCC(=O)O.N=C(NCCCCCCNC(=N)NC(=N)Nc1ccc(Cl)cc1)NC(=N)Nc1ccc(Cl)cc1 [Chlorhexidine Stearate, chlorhexidine distearate]	11 mm	17 mm	16 mm	13 mm	14 mm	8 mm	8 mm	zones of inhibition that were smaller	30 g	76 g	87 g	95 g	99 g	0	0	Percent release of the initial salt concentration from the coated sample ([1]; after 28 days (FIG. 1)): approximately 40%; Log10 reduction of adhered Pseudomonas aeruginosa onto the surface of coated polyurethane tubes ([3]; 14 days): 0; Inhibition of adherence / antimicrobial effect against Pseudomonas aeruginosa (in words) ([3]; coated polyurethane tubes compared to uncoated control): did not provide an antimicrobial effect beyond the first day; also recorded: did not inhibit adherence of the challenge organism
